What all share (type): functional
Test [1] relates to Apolygus lucorum. Briefly: Ratio of LC50 for third-instar Apolygus lucorum reared in asparagus bean pod at 15 degC to LC50 for third-instar Apolygus lucorum reared in asparagus bean pod at 30 degC.
The test system of test [2] is Apolygus lucorum. Briefly: Insecticidal activity against third-instar Apolygus lucorum reared in asparagus bean pod assessed as mortality administered by dipping pods in compound solution measured after 48 hr at 35 degC.
Test [3] deals with Apolygus lucorum. In words: Insecticidal activity against third-instar Apolygus lucorum reared in asparagus bean pod assessed as mortality administered by dipping pods in compound solution measured after 48 hr at 20 degC.
Test [4] relates to Apolygus lucorum. In words: Ratio of LC50 for third-instar Apolygus lucorum reared in asparagus bean pod at 25 degC to LC50 for third-instar Apolygus lucorum reared in asparagus bean pod at 15 degC.
The test system of test [5] is Apolygus lucorum. Briefly: Insecticidal activity against third-instar Apolygus lucorum reared in asparagus bean pod assessed as mortality administered by dipping pods in compound solution measured after 48 hr at 30 degC.
For test [6], the system named is Apolygus lucorum. In words: Ratio of LC50 for third-instar Apolygus lucorum reared in asparagus bean pod at 15 degC to LC50 for third-instar Apolygus lucorum reared in asparagus bean pod at 35 degC.
Test [7] relates to Apolygus lucorum. In words: Insecticidal activity against third-instar Apolygus lucorum reared in asparagus bean pod assessed as mortality administered by dipping pods in compound solution measured after 48 hr at 25 degC.
Test [8] relates to Apolygus lucorum. Briefly: Ratio of LC50 for third-instar Apolygus lucorum reared in asparagus bean pod at 20 degC to LC50 for third-instar Apolygus lucorum reared in asparagus bean pod at 15 degC.
For test [9], the system named is Apolygus lucorum. In words: Insecticidal activity against third-instar Apolygus lucorum reared in asparagus bean pod assessed as mortality administered by dipping pods in compound solution measured after 48 hr at 15 degC.
Test [10] has as its system Apolygus lucorum. Briefly: Ratio of LC50 for third-instar Apolygus lucorum reared in asparagus bean pod at 15 degC to LC50 for third-instar Apolygus lucorum reared in asparagus bean pod at 20 degC.
The test system of test [11] is Apolygus lucorum. In words: Ratio of LC50 for third-instar Apolygus lucorum reared in asparagus bean pod at 15 degC to LC50 for third-instar Apolygus lucorum reared in asparagus bean pod at 25 degC.
Test [12] relates to Apolygus lucorum. Briefly: Ratio of LC50 for third-instar Apolygus lucorum reared in asparagus bean pod at 35 degC to LC50 for third-instar Apolygus lucorum reared in asparagus bean pod at 15 degC.
The subject of test [13] is Apolygus lucorum. Briefly: Ratio of LC50 for third-instar Apolygus lucorum reared in asparagus bean pod at 30 degC to LC50 for third-instar Apolygus lucorum reared in asparagus bean pod at 15 degC.

Converted amounts (≈) assume the structure as drawn.

Usually LC50 stands for the concentration that kills 50% of the test population. `N#Cc1nn(-c2c(Cl)cc(C(F)(F)F)cc2Cl)c(N)c1[S+]([O-])C(F)(F)F` (configuration not stated) [FIPRONIL]: the RatioLC50 is reported as 1.03 in test [1], 2.12 in test [4], 3.4 in [6] and 5.76 in test [8]. In addition, the LC50 in test [2] is 0.1 µg/mL (≈ 0.229 µM); in test [3], 1.69 µg/mL (≈ 3.87 µM); in test [5], 0.33 µg/mL (≈ 0.755 µM); in test [7], 0.72 µg/mL (≈ 1.65 µM); in test [9] it was 0.34 µg/mL (≈ 0.778 µM).

For the compound `O=[N+]([O-])/N=C1\NCCN1Cc1ccc(Cl)nc1` [IMIDACLOPRID], the RatioLC50 in [1] is given as 13.94; in [10] it was 2.2; in [6] it was 22.45; in test [11], 3.24. In addition, the LC50 in [2] is 148.05 µg/mL (≈ 579 µM); in [3] it was 1507.97 µg/mL (≈ 5900 µM); in test [5], 238.47 µg/mL (≈ 933 µM); in test [7], 1025.9 µg/mL (≈ 4010 µM); in test [9], 3324.02 µg/mL (≈ 13000 µM).

Consider `CC1(C)C(/C=C(\Cl)C(F)(F)F)C1C(=O)O[C@@H](C#N)c1cccc(Oc2ccccc2)c1` (some centres not stated) [GAMA-CYHALOTHRIN], for which the median lethal concentration (LC50) worked out at 95.03 µg/mL (≈ 211 µM) in test [2]; 25.6 µg/mL (≈ 56.9 µM) in [3]; 72.22 µg/mL (≈ 161 µM) in test [5]; 27.96 µg/mL (≈ 62.2 µM) in [7]; 25.28 µg/mL (≈ 56.2 µM) in [9]. Besides, the RatioLC50 in test [12] is 3.76; in [4], 1.11; in test [8] it was 1.01; in [13], 2.86.

As to `CNC(=O)ON=C(C)SC` [METHOMYL], the LC50 in test [2] is 731.98 µg/mL (≈ 4510 µM); in [3], 564.28 µg/mL (≈ 3480 µM); in test [5] it was 1108.75 µg/mL (≈ 6840 µM); in test [7] it was 895.41 µg/mL (≈ 5520 µM); in test [9], 482.96 µg/mL (≈ 2980 µM). Also, the RatioLC50 in test [12] came out at 1.52; in test [4], 1.85; in test [8] it was 1.17; in test [13], 2.3.

On to `CC1(C)[C@H](C=C(Cl)Cl)[C@H]1C(=O)O[C@@H](C#N)c1cccc(Oc2ccccc2)c1` [BETA-CYPERMETHRIN], for which the LC50 worked out at 20.78 µg/mL (≈ 49.9 µM) in test [2]; 14.86 µg/mL (≈ 35.7 µM) in test [3]; 28.44 µg/mL (≈ 68.3 µM) in [5]; 11.83 µg/mL (≈ 28.4 µM) in test [7]; 0.4 µg/mL (≈ 0.961 µM) in test [9]. Besides, the RatioLC50 in [12] is given as 51.35; in [4], 29.23; in [8], 36.72; in test [13] it was 70.27.

As to `CCCCN(CCCC)SN(C)C(=O)Oc1cccc2c1OC(C)(C)C2` [CARBOSULFAN], the RatioLC50 in [1] was determined as 1.12; in test [10] it was 2.36; in [6], 1.75; in [11], 1.37. Moreover, the median lethal concentration (LC50) in test [2] stood at 156.75 µg/mL (≈ 412 µM); in test [3] it was 116.07 µg/mL (≈ 305 µM); in [5] it was 246.4 µg/mL (≈ 647 µM); in test [7], 199.4 µg/mL (≈ 524 µM); in test [9], 274.15 µg/mL (≈ 720 µM).

`CCOP(=S)(OCC)O/N=C(\C#N)c1ccccc1` [PHOXIM]: the RatioLC50 in test [1] is 1.01; in test [4], 1.2; in [10] it was 1.27; in test [6], 1.14. Further, the LC50 in test [2] amounted to 173.53 µg/mL (≈ 582 µM); in [3] it was 156.17 µg/mL (≈ 524 µM); in test [5], 196.5 µg/mL (≈ 659 µM); in test [7], 237.93 µg/mL (≈ 798 µM); in test [9], 198.24 µg/mL (≈ 665 µM).

In the case of `C/C(=N\C#N)N(C)Cc1ccc(Cl)nc1` [ACETAMIPRID], the RatioLC50 was 6.11 in test [1], 1.66 in test [10], 8.87 in test [6] and 3.83 in test [11]. In addition, the median lethal concentration (LC50) was found to be 181.95 µg/mL (≈ 817 µM) in test [2]; 972.05 µg/mL (≈ 4370 µM) in test [3]; 264.02 µg/mL (≈ 1190 µM) in test [5]; 420.95 µg/mL (≈ 1890 µM) in test [7]; 1613.76 µg/mL (≈ 7250 µM) in test [9].
